Reference: ChEMBL document CHEMBL5096150, “Development and Therapeutic Potential of NUAKs Inhibitors” (J Med Chem, 2021)
One block for each molecule: values may come before it.

What was measured:
[1] = molecular target: T1, NUAK family SNF1-like kinase 1 (Homo sapiens, UniProt O60285); experiment: Inhibition of NUAK1 (unknown origin)
T1 sequence (O60285 whole entry): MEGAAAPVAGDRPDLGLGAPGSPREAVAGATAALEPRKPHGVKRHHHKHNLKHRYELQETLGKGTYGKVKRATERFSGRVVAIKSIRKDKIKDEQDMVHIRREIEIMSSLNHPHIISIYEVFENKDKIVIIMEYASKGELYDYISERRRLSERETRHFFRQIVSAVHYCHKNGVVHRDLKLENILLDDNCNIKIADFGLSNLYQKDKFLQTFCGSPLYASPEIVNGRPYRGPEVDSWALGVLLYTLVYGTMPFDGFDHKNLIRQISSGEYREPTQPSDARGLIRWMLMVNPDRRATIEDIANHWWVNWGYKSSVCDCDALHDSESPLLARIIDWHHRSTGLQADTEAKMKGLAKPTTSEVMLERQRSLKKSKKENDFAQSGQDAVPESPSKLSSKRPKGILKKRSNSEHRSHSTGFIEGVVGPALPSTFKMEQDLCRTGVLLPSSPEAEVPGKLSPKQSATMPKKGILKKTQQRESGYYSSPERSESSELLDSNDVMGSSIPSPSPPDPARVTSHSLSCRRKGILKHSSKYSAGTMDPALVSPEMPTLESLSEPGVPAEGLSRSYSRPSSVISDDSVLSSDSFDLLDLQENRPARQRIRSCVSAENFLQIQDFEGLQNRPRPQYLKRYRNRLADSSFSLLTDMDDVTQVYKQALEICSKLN

[2] = molecular target: T2, NUAK family SNF1-like kinase 2 (Homo sapiens, UniProt Q9H093); experiment: Inhibition of NUAK2 (unknown origin)
T2 sequence (Q9H093 whole entry): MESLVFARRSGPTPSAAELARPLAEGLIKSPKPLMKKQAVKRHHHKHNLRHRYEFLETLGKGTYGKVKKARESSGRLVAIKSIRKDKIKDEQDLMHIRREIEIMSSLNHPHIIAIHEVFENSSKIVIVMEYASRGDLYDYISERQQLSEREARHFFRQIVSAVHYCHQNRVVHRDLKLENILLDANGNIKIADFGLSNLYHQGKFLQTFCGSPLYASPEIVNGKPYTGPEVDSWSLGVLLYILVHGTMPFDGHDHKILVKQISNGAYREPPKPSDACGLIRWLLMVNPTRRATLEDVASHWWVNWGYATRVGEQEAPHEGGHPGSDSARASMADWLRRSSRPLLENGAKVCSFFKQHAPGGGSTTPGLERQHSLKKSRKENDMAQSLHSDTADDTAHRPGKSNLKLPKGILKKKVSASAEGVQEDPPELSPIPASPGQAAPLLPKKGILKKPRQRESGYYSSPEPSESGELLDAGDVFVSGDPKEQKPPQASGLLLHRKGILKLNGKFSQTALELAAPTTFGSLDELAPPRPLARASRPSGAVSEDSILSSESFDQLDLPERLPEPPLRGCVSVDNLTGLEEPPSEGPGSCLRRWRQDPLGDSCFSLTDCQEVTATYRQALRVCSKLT

[3] = molecular target: T1, NUAK family SNF1-like kinase 1; experiment: Inhibition of N-terminal GST-tagged wild type human NUAK1 expressed in Escherichia coli DH5alpha incubated for 30 mins in presence of gamma-[32P]ATP by cerenkov counting analysis
[4] = Inhibition of N-terminal GST-tagged human NUAK1 A195T mutant expressed in Escherichia coli DH5alpha incubated for 30 mins in presence of gamma-[32P]ATP by cerenkov counting analysis
[5] = molecular target: T3, Insulin-like growth factor 1 receptor (Homo sapiens, UniProt P08069); experiment: Inhibition of human IGF1R expressed in mouse IGF1R knockout MEF cells; assay type: cell-based
T3 sequence (P08069 31-736 limits assumed): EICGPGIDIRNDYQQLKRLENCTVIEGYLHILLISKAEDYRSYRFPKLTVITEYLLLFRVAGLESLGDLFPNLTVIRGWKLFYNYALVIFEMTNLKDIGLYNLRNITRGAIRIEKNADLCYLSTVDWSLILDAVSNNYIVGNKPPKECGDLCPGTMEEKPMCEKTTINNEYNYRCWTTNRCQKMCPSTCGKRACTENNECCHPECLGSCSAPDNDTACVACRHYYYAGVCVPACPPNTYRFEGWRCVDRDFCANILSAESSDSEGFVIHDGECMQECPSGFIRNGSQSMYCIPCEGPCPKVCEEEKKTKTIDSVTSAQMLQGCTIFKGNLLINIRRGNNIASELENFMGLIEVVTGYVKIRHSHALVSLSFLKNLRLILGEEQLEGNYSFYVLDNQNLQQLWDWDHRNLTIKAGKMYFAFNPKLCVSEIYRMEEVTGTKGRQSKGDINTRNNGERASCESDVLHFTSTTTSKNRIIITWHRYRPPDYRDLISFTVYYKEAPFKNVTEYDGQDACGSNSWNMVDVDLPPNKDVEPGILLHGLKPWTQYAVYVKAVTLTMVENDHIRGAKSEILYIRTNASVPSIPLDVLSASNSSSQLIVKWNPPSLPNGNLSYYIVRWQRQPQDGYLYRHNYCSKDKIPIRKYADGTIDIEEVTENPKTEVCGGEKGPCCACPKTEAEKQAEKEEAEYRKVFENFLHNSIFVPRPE
T3 sequence (P08069 741-1367 limits assumed): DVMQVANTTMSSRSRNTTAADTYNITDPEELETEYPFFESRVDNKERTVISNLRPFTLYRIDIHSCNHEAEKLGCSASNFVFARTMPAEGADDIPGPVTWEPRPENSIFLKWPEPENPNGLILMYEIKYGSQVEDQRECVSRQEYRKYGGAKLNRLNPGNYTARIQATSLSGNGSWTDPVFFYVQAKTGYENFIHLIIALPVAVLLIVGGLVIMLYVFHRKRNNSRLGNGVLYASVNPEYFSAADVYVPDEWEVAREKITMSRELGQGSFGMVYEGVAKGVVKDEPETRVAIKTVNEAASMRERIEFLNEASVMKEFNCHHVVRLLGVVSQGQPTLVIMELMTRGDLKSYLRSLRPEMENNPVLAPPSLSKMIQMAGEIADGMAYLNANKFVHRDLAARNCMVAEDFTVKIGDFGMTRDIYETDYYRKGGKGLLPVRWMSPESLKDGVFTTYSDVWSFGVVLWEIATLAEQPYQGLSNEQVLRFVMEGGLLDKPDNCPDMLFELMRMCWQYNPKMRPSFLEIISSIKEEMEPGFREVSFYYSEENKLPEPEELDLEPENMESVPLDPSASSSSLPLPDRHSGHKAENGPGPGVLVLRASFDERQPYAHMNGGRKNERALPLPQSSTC

Insulin receptor [6] = molecular target: T4, Insulin receptor (Homo sapiens, UniProt P06213); experiment: Inhibition of human InsR expressed in mouse IGF1R knockout MEF cells; assay type: cell-based
T4 sequence (P06213 28-758 limits assumed): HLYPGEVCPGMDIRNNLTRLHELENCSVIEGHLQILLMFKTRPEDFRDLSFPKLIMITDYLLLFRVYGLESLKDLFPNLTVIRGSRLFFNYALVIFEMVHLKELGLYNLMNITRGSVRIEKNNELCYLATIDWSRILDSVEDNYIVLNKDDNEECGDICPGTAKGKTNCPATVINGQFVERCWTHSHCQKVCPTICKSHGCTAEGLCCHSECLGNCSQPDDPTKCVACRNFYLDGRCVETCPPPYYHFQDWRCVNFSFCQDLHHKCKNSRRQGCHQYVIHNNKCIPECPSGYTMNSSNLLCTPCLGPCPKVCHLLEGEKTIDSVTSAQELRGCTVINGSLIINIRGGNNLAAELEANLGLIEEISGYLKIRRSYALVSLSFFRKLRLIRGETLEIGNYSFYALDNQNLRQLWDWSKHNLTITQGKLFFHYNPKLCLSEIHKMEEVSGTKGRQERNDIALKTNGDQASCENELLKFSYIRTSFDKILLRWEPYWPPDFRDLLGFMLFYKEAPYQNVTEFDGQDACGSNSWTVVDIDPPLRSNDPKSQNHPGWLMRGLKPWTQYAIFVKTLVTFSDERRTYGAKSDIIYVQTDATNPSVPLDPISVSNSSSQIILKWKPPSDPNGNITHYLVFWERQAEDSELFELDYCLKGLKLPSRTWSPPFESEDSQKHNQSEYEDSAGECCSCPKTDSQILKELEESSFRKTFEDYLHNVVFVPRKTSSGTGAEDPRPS
T4 sequence (P06213 763-1382 limits assumed): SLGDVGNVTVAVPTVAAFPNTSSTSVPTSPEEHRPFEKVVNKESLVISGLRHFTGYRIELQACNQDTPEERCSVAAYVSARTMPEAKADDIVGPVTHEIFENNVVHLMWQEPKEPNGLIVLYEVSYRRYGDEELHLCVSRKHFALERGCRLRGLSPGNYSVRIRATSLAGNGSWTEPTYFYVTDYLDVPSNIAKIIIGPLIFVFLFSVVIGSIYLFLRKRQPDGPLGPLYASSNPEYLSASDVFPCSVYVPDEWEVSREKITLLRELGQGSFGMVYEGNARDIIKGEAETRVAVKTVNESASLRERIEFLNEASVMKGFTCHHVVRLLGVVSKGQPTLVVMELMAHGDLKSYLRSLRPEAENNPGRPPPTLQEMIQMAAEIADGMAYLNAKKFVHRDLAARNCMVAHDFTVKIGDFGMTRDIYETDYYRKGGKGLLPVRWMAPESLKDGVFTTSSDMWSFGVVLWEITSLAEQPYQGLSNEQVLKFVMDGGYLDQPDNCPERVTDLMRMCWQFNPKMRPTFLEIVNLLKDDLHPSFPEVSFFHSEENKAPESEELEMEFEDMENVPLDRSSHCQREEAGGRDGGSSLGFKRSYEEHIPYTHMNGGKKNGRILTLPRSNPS

Insulin receptor [7] = molecular target: T4, Insulin receptor; experiment: Binding affinity to human InsR expressed in mouse IGF1R knockout MEF cells assessed as dissociation constant; assay type: cell-based
[8] = molecular target: T3, Insulin-like growth factor 1 receptor; experiment: Binding affinity to human IGF1R expressed in mouse IGF1R knockout MEF cells assessed as dissociation constant; assay type: cell-based
[9] = molecular target: T5, NUAK family SNF1-like kinase 1 (Homo sapiens) (UniProt O60285); experiment: Inhibition of NUAK1 (unknown origin) at 0.01 uM relative to control
T5 sequence (whole entry): T1 sequence (O60285 whole entry)

[10] = molecular target: T5, NUAK family SNF1-like kinase 1 (Homo sapiens); experiment: Inhibition of NUAK1 (unknown origin) at 1 uM relative to control
[11] = molecular target: T5, NUAK family SNF1-like kinase 1 (Homo sapiens); experiment: Inhibition of NUAK1 (unknown origin) at 0.10 uM relative to control; conditions: dose 0.1 µM
[12] = molecular target: Proto-oncogene tyrosine-protein kinase receptor Ret (Homo sapiens, UniProt P07949); experiment: Inhibition of RET (unknown origin)
Sequence of Proto-oncogene tyrosine-protein kinase receptor Ret (P07949 whole entry): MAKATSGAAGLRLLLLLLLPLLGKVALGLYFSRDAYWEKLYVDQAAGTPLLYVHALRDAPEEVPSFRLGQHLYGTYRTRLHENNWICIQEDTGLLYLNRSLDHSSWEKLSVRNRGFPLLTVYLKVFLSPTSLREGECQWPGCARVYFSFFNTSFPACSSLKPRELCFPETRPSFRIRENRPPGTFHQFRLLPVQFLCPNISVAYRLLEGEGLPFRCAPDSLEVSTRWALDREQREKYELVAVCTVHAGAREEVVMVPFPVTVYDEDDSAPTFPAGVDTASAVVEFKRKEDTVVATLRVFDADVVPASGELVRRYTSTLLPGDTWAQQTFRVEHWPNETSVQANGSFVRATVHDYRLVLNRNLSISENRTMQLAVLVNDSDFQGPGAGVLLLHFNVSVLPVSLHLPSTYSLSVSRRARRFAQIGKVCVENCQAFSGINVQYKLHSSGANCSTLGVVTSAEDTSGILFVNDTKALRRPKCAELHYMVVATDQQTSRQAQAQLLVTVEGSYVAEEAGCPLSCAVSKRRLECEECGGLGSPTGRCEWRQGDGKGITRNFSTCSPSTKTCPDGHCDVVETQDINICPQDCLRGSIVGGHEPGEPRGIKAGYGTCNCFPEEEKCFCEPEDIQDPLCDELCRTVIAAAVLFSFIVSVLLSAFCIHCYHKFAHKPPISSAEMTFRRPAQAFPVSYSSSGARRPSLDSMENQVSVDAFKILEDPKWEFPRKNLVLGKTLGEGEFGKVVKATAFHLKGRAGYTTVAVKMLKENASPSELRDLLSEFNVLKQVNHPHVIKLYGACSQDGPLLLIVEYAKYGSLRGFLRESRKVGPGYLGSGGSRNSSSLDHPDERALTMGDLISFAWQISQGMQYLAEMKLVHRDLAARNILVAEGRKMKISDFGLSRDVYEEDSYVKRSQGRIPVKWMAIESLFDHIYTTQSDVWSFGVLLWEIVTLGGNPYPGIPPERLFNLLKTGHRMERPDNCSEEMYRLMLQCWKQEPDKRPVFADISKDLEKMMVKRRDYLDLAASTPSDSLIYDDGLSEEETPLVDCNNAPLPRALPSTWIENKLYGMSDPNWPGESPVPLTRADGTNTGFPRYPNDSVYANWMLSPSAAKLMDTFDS

[13] = molecular target: Cyclin-dependent kinase 4 (Homo sapiens) (UniProt P11802); experiment: Inhibition of CDK4 (unknown origin)
Sequence of Cyclin-dependent kinase 4 (Homo sapiens) (P11802 whole entry): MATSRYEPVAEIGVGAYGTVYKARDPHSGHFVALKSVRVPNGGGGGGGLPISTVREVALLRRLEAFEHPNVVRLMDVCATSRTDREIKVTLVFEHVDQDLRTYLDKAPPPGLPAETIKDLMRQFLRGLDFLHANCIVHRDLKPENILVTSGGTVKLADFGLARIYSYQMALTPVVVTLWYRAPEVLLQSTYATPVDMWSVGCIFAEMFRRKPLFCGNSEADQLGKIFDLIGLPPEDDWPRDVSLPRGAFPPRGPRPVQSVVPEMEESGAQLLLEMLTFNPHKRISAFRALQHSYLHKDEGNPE

Aurora kinase C = molecular target: T6, Aurora kinase C (Homo sapiens, UniProt Q9UQB9); experiment: Inhibition of Aurora C (unknown origin)
T6 sequence (Q9UQB9 whole entry): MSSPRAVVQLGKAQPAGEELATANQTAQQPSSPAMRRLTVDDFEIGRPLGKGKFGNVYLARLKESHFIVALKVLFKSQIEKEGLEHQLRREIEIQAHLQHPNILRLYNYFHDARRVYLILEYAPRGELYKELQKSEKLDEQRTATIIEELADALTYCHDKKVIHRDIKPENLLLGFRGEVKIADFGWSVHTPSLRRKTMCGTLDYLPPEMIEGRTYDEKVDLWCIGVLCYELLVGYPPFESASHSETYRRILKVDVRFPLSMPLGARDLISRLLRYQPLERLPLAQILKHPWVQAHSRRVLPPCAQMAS

[14] = molecular target: T1, NUAK family SNF1-like kinase 1; experiment: Inhibition of NUAK1 in HEK293 cells assessed as effect on MYPT1 phosphorylation at Ser445 incubated for 3 mins by immunoblotting analysis; assay type: cell-based
Aurora kinase B = Aurora kinase B (Homo sapiens, UniProt Q96GD4); experiment: Inhibition of Aurora B (unknown origin)
Sequence of Aurora kinase B (Q96GD4 whole entry): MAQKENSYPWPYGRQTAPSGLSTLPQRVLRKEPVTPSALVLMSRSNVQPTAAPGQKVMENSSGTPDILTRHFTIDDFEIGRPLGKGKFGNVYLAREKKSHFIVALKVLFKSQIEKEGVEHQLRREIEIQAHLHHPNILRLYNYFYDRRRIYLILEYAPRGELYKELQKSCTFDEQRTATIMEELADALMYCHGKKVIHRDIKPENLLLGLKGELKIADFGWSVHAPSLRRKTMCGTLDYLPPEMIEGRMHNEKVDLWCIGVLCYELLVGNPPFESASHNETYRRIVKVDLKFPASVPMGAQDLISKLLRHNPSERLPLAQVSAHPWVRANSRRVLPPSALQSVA

SMILES: Fc1ccc(Cn2cnc3cc(Cl)c(Nc4cc(C5CC5)[nH]n4)nc32)cc1
IC50 [1]: 0.0349 µM

SMILES: COc1cccc(OCCCN)c1-c1cc(Nc2cnc(C#N)cn2)n[nH]1 [PREXASERTIB]
IC50 [1]: 0.064 µM

SMILES: O=C(NCCCNc1nc(Nc2cccc(CN3CCOCC3)c2)ncc1C1CC1)C1CCC1
IC50 [2]: 2.6 µM

SMILES: CC(C)(C)NS(=O)(=O)c1cccc(Nc2nc(Nc3cnn(C4CCNCC4)c3)ncc2Cl)c1
IC50 [3]: 0.067 µM

SMILES: C=CC(=O)Nc1cccc(Oc2nc(Nc3ccc(N4CCN(C)CC4)cc3)nc3[nH]cnc23)c1
IC50 [3]: 0.033 µM

SMILES: Cc1ccc2c(c1)C(=O)N(C)c1cnc(Nc3ccc4c(c3)NC(=O)CC4)nc1N2C
IC50 [3]: 0.015 µM | IC50 [4]: 2 µM

SMILES: Cc1cc(Nc2nc(NC(C)c3ccc(F)cc3)c(C#N)cc2F)n[nH]1 (stereo not drawn)
inhibition [9]: 35% | inhibition [10]: 3% | inhibition [11]: 6%

SMILES: C[C@@H](O)[C@@H](C)Oc1nc(Nc2ccc([S@](=N)(=O)C3CC3)cc2)ncc1C(F)(F)F [RONICICLIB]
IC50 [1]: < 0.01 µM

Second part, the molecule after the results:

IC50 [3]: 0.006 µM
SMILES: Cc1cc(Nc2ncc3c(n2)N(C)c2ccccc2C(=O)N3C)ccc1C(=O)N1CCN(C)CC1

IC50 [2]: 0.126 µM
SMILES: CCCC(=O)Nc1cccc(Oc2nc(Nc3ccc(N4CCN(C)CC4)cc3OC)ncc2I)c1

IC50 [3]: 0.017 µM
SMILES: Cc1nc(Nc2cnn(C3CCNCC3)c2)nc2c1N(C)C(=O)c1ccccc1N2C

IC50 [5]: 0.001 µM | IC50 (Insulin receptor [6]): 0.001 µM | Kd (Insulin receptor [7]): 0.012 µM | Kd [8]: 0.009 µM | IC50 [1]: 0.411 µM
SMILES: COCCN1CCN(CCn2ccc(Nc3ncc4c(n3)C(C)Cc3nn(C)c(-c5ccccc5)c3-4)n2)CC1 (stereo not drawn)

IC50 [12]: 0.0092 µM | IC50 [13]: 0.0039 µM
SMILES: CN1CCN(c2ccc(Nc3ncc4cc(C#N)c(=O)n(C5CCCC5)c4n3)cc2)CC1 [NARAZACICLIB]

IC50 [3]: 0.007 µM
SMILES: Cc1ccc2c(c1)C(=O)N(C)c1cnc(Nc3cnn(C4CCNCC4)c3)nc1N2C

IC50 [3]: 0.0015 µM
SMILES: CCC(=O)Nc1cccc(Oc2nc(Nc3ccc(N4CCN(C)CC4)cc3OC)ncc2Cl)c1

IC50 [3]: 0.025 µM
SMILES: C=CC(=O)Nc1cccc(Oc2nc(Nc3ccc(N4CCN(C)CC4)cc3OC)ncc2Cl)c1

IC50 [1]: 0.005 µM
SMILES: O=C(NCCCNc1nc(Nc2cccc(NC(=O)N3CCCC3)c2)ncc1I)c1cccs1 [BX-795]

IC50 (Aurora kinase C): 0.12 µM | IC50 [14]: 10 µM | IC50 (Aurora kinase B): 0.054 µM
SMILES: CN1C(=O)c2cc3ccccc3cc2N(C)c2nc(Nc3cnn(C4CCNCC4)c3)ncc21
